Measurements: US9150509B2, “Lipoic acid derivatives” (Cornerstone Pharmaceuticals, Inc., priority 2007, dated 2015)
Where two headings read alike, the source gives them in different places.

Columns and labels:
Assay type in all cases: cell-based
[1] = test system: human melanoma A2058; assay: Anti-tumor activity, cell growth inhibition by CellTiter Blue Assay, A2058; conditions: read-out: IC50 A2058 (melanoma)
Experimental: (§1) Three human tumor cells were used in this investigation, and they were human H460 NSCLC, human melanoma A2058 and human […] HT1080 cell lines. Cells were originally obtained from American Type Cell Culture (ATCC) and have been used for experiments at passages below 30. All tumor cells were maintained at 37° C. in a humidified 5% CO2 atmosphere in T75 tissue culture flasks containing 25 mL of Roswell Park Memorial Institute (RPMI) 1640, with 10% fetal bovine serum (FBS) and 2 mM L-glutamine. The tumor cells were split at a ratio of 1:10 every 4-5 days by trypsinization and resuspended in fresh medium in a new flask. Cells were harvested for experiments at 70-90% confluency.
(§2) The culture media used for all cell lines in this study was Roswell Park Memorial Institute (RPMI) 1640, with 10% fetal bovine serum (FBS), 2 mM L-glutamine, 100 IU/mL penicillin and 100 μg/ml streptomycin. The test compounds used were generally prepared at a concentration higher than 20 mM and tested at 1 mM in cultured media for precipitation, 1 mM is the highest tested concentration of the test compounds.
(§3) The anti-tumor activities of the test compounds were assessed by exposing the tumor cells to various concentrations of test compounds (or vehicle) or not treated with the test compounds or vehicle. The concentration ranges of the test compounds evaluated in this study were 0-1 mM. The duration of treatment of the tumor cells was 48 hours. Subsequent to treatment with the test articles, the number of viable tumor cells was determined, and the concentrations of the test agents that induced 50% of cell growth inhibition (IC50) were derived and compared.
(§4) Cell Seeding for Experiments: To cells grown to 70-90% confluency, medium was removed and the cell monolayers were washed briefly by adding 5 mL of phosphate buffer saline (PBS) followed by aspiration. Trypsin-ethylenediaminetetraacetic acid (EDTA) (4 mL) was added to each, flask, and the flask was placed in the tissue culture incubator for 5 minutes. Serum-containing medium (10 mL) was added to halt the enzymatic reactions, and cells were disaggregated, by repeated resuspension with serological pipet. The cell-containing medium (20 μL) was added to 20 μL of 0.4% Trypan Blue solution, mixed, and 10 μL of this cell-containing mixture was placed in a chamber of a hemocytometer. The number of viable cells was determined by counting the number of viable cells (cells that excluded trypan blue) in the 4 corner squares of the hemocytometer chamber at 100× magnification. The volume of cells needed was determined by the following formula:
(§5) The number of cells targeted for the study was 4×10^3 per well in 100 μL of medium. The actual number of cells were counted and seeded in the wells of a 96 well-plate. The cells were then incubated for ˜24 hrs before they were used for testing of anti-tumor activities of the test compounds and vehicle. Cell monolayer was confluent or subconfluent for some cell lines at the day of the experiment.
(§6) Treatment with Test Compounds and Vehicle: On the day of testing, 5 μL of a specific concentration of the test compounds (or vehicle) were added to the wells. After exposure to the test articles (or vehicle) for 48 hours, the number of viable cells in the wells was determined (see next section), and the percent of cells relative to no treatment was calculated.
(§7) Determination of the Number of Viable Cells by the CellTiter Blue Assay: The number of viable cells was determined using the CellTiter Blue Assay in this study. Specifically, reagents were allowed to come to room temperature according to instructions from Protoega, Inc. (Madison, Wis.). CellTiter Blue reagent was added with the 12-channel Eppendorf pipettor, 20 μL per well. The cells were then incubated at 37° C. for 1-4 hrs in cell culture incubator. Fluorescence intensity, which is proportional to the quantity of viable cells, was read at 530/590 nm using FLUOstar optima fluorescence plate reader (BMG technologies, Germany). […]

[2] = test system: human H460 NSCLC; assay: Anti-tumor activity, cell growth inhibition by CellTiter Blue Assay, H460; conditions: read-out: IC50 H460 (NSCLC)
Experimental: as §1, §2, §3, §4, §5, §6, §7

[3] = test system: human adenocarcinoma HT1080; assay: Anti-tumor activity, cell growth inhibition by CellTiter Blue Assay, HT1080; conditions: read-out: IC50 HT1080
Experimental: as §1, §2, §3, §4, §5, §6, §7

[4] = Homo sapiens, A2058, 48 h, A2058 cells, 48 hours treatment, 0-1 mM, viable cells by CellTiter Blue
[5] = Homo sapiens, NCI-H460, 48 h, H460 cells, 48 hours treatment, 0-1 mM, viable cells by CellTiter Blue
[6] = Homo sapiens, HT-1080, 48 h, HT1080 cells, 48 hours treatment, 0-1 mM, viable cells by CellTiter Blue
[7] = A2058 cells, 48 hours treatment, 0-1 mM, viable cells by CellTiter Blue
[8] = H460 cells, 48 hours treatment, 0-1 mM, viable cells by CellTiter Blue
[9] = HT1080 cells, 48 hours treatment, 0-1 mM, viable cells by CellTiter Blue

Row | IC50 [1, 4] [µM] | IC50 [2, 5] [µM] | IC50 [3, 6] [µM] | Structure (SMILES) | other results
1 | 59 ± 4 | 64 ± 4 | 60 ± 18 | O=C(O)CCCCC(CCSCc1c(F)c(F)c(F)c(F)c1F)SCc1c(F)c(F)c(F)c(F)c1F (stereo not drawn) [X] | –
2 | 125 ± 3 | 167 ± 42 | – | O=C(O)CCCCC(CCSCCc1ccccc1)SCCc1ccccc1 (stereo not drawn) [W] | –

More lines, now with the values behind:

Row | Structure (SMILES) | IC50 [1, 4] [µM] | IC50 [2, 5] [µM] | IC50 [3, 6] [µM] | other results
3 | O=C(O)CCCCC1CCSC(c2ccncc2)S1 (stereo not drawn) [Q] | – | – | – | IC50 ([1]; Homo sapiens, A2058, 48 h): 717 ± 11 µM
4 | O=C(O)CCCCC(CCSc1ccnc2ccccc12)Sc1ccnc2ccccc12 (stereo not drawn) [F] | – | – | – | IC50 ([1]; Homo sapiens, A2058, 48 h): 51 ± 4 µM; IC50 ([2]; Homo sapiens, NCI-H460, 48 h): 70 ± 13 µM; IC50 ([3]; Homo sapiens, HT-1080, 48 h): 68 ± 20 µM
5 | O=C(O)CCCCC(CCSc1ccnc2cc(Cl)ccc12)Sc1ccnc2cc(Cl)ccc12 (stereo not drawn) [A] | 183 ± 3 | 127 ± 11 | 80 ± 8 | –
6 | CCC(S)(CCCCC(=O)O)CC(S)c1ccccc1 (stereo not drawn) [Compound MM, 6-ethyl-8-phenyl-6,8-bismercaptooctanoic acid] | 346 ± 20 | 449 ± 1 | 421 ± 53 | –
7 | CCSC(CCS)CCCCC(=O)O (stereo not drawn) [H, 6-ethylmercapto-8-mercaptooctanoic acid] | 238 ± 2 | 282 ± 20 | 270 ± 4 | –
8 | O=C(O)CCCCC(CCSSCc1ccccc1)SSCc1ccccc1 (stereo not drawn) [KK] | – | – | – | IC50 [1, 7]: 483 ± 180 µM; IC50 [2, 8]: 409 ± 69 µM; IC50 [3, 9]: 212 ± 52 µM
9 | O=C(O)CCCCC(CCSSCc1ccccc1)SSCc1ccccc1 (stereo not drawn) [JJ] | – | – | – | IC50 [1, 7]: 206 ± 55 µM; IC50 [2, 8]: 318 ± 20 µM; IC50 [3, 9]: 133 ± 2 µM
